Laboratory results published in patent US20070059385A1, “Safe pharmaceutical composition for treating and preventing cancer and method of use” (priority 2005, published 2007).

Key:
[1] = system: HL-60 cells; assay: Induction of differentiation (NBT reduction) of human leukemic cells; type: cell-based; conditions: Mu, GU, MAT, IND 50 ng/ml, higher NBT (%) means higher normal cells
Description: HL-60 cells were established from a patient with acute myeloid leukemia. The cells were cultured in culture flasks with RPMI plus 10% FCS.
Differentiation of HL-60 cells was assessed by their abilities to produced superoxide as measured by reduction of NBT, by NSE staining and by morphology as detected on cytospin preparations stained with Diff-Quick stain Set, and by analysis of membrane-bound differentiation markers with two-color immunofluorescence. Briefly, cells were preincubated at 4° C. for 60 min in 10% human AB serum and then with FITC-conjugated mouse IgGI isotype control. Analysis of fluorescence was performed on a flow cytometer.
HL-60 cells were culture in a two-layer soft agar system for 10 days without adding any growth factors as described previously, and colonies were counted using an inverted microscope. The analogues were added to the agar upper layer on day 0. For analysis of the reversibility of inhibition of proliferation, the cells were cultured in suspension culture with and without HHT or other drugs. After 60 hours, the culture flasks were gently jarred to loosen adherent cells, the cells were washed twice in cultured medium containing 10% FCS to remove the test drugs, and then the clonogenic assay was performed. NBT% indicated percentage of normal cells.

[2] = system: gastric cancer cells; assay: Cellular diversion of gastric cancer cells (NBT); type: cell-based
Description: The gastric cancer cells and normal cells were cultured in PRMI 1640 medium supplement with 10% FCS serum. Other method is similar to example 8.

[3] = system: Human leukemia cells (HL-60); assay: Apoptosis of human leukemia cells; type: cell-based
Description: Human leukemia cells (HL-60) were grown in RPMI Medium 1640 supplemented with 10% (v/v) heat-inactivated FBS (56° C. for 30 min) at 37° C. in a humidified 95% air/5% CO2 atmosphere. Cells were seeded at a level of 2×10^5 cells/ml. Cells were allowed to attain a maximum density of 1.2×10^6 cells/ml before being passed by dilution into fresh medium to a concentration of 2×10^5 cells/ml. […]
For evaluation of apoptosis by flow cytometry, cells were fixed and permeabilized in 1% paraformaldehyde and ice-cold 70% ethanol. Digoxigenin-dUTP was incorporated at the 3′OH ends of the fragmented DNA in the presence of terminal deoxynucleotidyltranserase, and the cells were incubated with FITC-labeled anti-digoxigenin-dUTP and with propidium iodide. Green (apoptotic cells) and orange (total DNA) fluorescence were measured with a FACScan flow cytometer and analyzed with LYSIS II and CELLFIT programs. Data were analyzed by Student's t-test. P values were considered significant when <0.05. […]
Apoptosis of HL-60 cells was assessed by changes in cell morphology and by measurement of DNA nicks using the Apop Tag Kkt (Oncor, Gaithersburg, Md.). […] These features make apoptotic cells relatively easy to distinguish from necrotic cells. These changes are detected on cytospin preparations stained with Diff-Quick Stain Set. Apoptotic cells were enumerated in a total of about 300 cells by light microscopy.

[4] = system: tyrosine kinase (TK); assay: Tyrosine kinase (TK) assay in HL-60 leukemia cells; type: cell-based, human
Description: Tyrosine kinase (TK) Assay: TK was measured by a modification of the method of Braun et al. Briefly, H-60 leukemia cells were plated at a density of 5×10^5 cells in […], and divided control and treatments groups for incubation 24 hours at 37° C. with 5% CO2. The cells were collected by scraping, washed twice with phosphate-buffered saline, and resuspended at density of 10^6 cells/ml in 5 mM HEPEs buffer (pH 7.4). The cells were then resuspended in 1 ml of buffer containing 5 mM HEPES (pH 7.6), 1 mM MgCl2 and 1 mM EDTA, then placed on ice bath. The cell membrane was disrupted by ultra sound and centrifuged at 1,000×g for 10 minutes. The supernatant was ultra centrifuged at 30,000×g for 30 minutes at 4° C. The pellet was resuspended in 0.3 ml of buffer containing 25 mM HEOES, centrifuged at 12,000×g for 5 minutes. The resulting supernatant was used for TK assay. Content of protein was determined. 10 μg of protein placed in 20 mM HEPES (pH 7.6), 15 mM MgCl2, 10 mM ZnCl2 and 5% (v/v) nonidet P-40, with or without substrate [glutamic acid (GT), mg/ml]. After 5 minutes incubation at 25° C., the reaction was initiated by the addition of 25 μM [γ^32P] ATP (3 ci/mmol). After 10 minutes, the reaction was stopped by the addition of 20 mM cold ATP. 50 μl of the mixtures were spotted on glass microfiber filter discs and washed three times with cold trichloroacetic acid (TCA), contained 10 mM sodium pyrophosphate. Air dried. Radioactivity was determined by liquid scintillation spectrometry. The net TK activity was determined after correcting for endogenous TK activity.

[5] = system: NNK-induced lung tumorigenesis; assay: NNK-induced lung tumorigenesis; type: in vivo; conditions: mice; drug 20 mg/kg daily by injection; 10 μmol NNK i.p.; pulmonary adenomas after sixteen weeks
Description: Every group had 20 mice. […] For control group, each mouse was gave same volume of physiological saline. Three days later, mice were gave 10 μmol NNK (in 0.1 ml saline) by i.p. injection. Sixteen weeks after these treatments the mice were killed and pulmonary adenomas were counted. The statistical significance of bioassay data was determined by student's test.

COC(=O)C[C@](O)(CCCC(C)(C)O)C(=O)O[C@@H]1C(OC)=C[C@]23CCCN2CCc2cc4c(cc2[C@H]13)OCO4 [HHT, Homoharringtonine]
NBT (%) [1]: 65 ± 7.0 % | NBT (%) [2]: 58 ± 8.9 % | Apoptosis (%) ([3]; HHT 10 ng/ml): 33.8 ± 4.8 % | Apoptosis (%) ([3]; HHT 50 ng/ml): 42.8 ± 5.2 % | Apoptosis (%) ([3]; HHT 100 ng/ml): 60.2 ± 8.9 % | Apoptosis (%) ([3]; HHT 500 ng/ml): 92.0 ± 10.8 % | Apoptosis (%) ([3]; Table 4, HHT (50 ng/ml) alone or in combination): 42.8 ± 5.2% | inhibition of HL-60 TK activity ([4]; 10^−7 M): 78.5% | inhibition of HL-60 TK activity ([4]; 10^−8 M): 12.2% | % of control activity (TK) ([4]; HL-60 leukemia cells, 10^−6 M): 0.6% | % of control activity (TK) ([4]; HL-60 leukemia cells, 10^−8 M): 87.8 ± 12% | % of control activity (TK) ([4]; Table 8, concentration not given): 21.5 ± 4.0% | Tumor incidence (%) [5]: 35.8 ± 4.5%
